Test results taken from patent publication US10653688B2, “6-(6-membered heteroaryl and aryl)isoquinolin-3-yl carboxamides and preparation and use thereof” (Samumed, LLC, priority 2017, dated 2020).
Read-outs that look alike come from different tables or passages of the source.

Legend:
[1] = system: Wnt activity (SW480 colon carcinoma cells stably expressing the Sp5-Luc reporter gene); experiment: Wnt activity screening assay (Sp5-Luc reporter gene assay); assay type: cell-based, human; conditions: Homo sapiens; for EC50: 36 to 48 hours
In short: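 EC50 values come from a variable-slope four-parameter fit of luminescence normalized to DMSO-only wells. The read-out follows 36–48 h incubation at 37 °C, 5% CO2, in DMEM containing 1% fetal bovine serum. Cells are hygromycin-selected SW480 stably expressing firefly luciferase under a Wnt-responsive Sp5 promoter (eight TCF/LEF sites).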

[2] = system: SW480 colon carcinoma cells; experiment: Cell viability assay (CellTiter-Glo); assay type: cell-based, human; conditions: Homo sapiens, 96 h, four days, CellTiter-Glo
[3] = molecular target: recombinant DYRK1A kinase (Homo sapiens (Human), UniProt Q13627); experiment: DYRK1A kinase assay (Ser/Thr 18 peptide Z-lyte, FRET)
Procedure: Each compound was dissolved in DMSO as a 10 mM stock and used to prepare compound source plates.
This is a non-radioactive assay using fluorescence resonance energy transfer (FRET) between coumarin and fluorescein to detect kinase activity which is represented as a ratio of coumarin emission/fluorescein emission.
The mixture was allowed to incubate with the representative compounds for one hour at room temperature. All reactions were performed in duplicate. Unphosphorylated (“0% Control”) and phosphorylated (“100% control”) forms of Ser/Thr 18 served as control reactions. Additionally, an 11-point dose-response curve of Staurosporine (luM top) was run to serve as a positive compound control.
After incubation, Development Reagent A was diluted in Development Buffer then added to the reaction and allowed to further incubate for one hour at room temperature.
Dose-response curves were generated and inhibitory concentration (IC50) values were calculated using non-linear regression curve fit in the Dotmatics' Studies Software (Bishops Stortford, UK).

[4] = molecular target: recombinant GSK3β kinase (Homo sapiens (Human), UniProt P49841); experiment: GSK3β kinase assay (Ser/Thr 09 peptide Z-lyte, FRET); assay type: biochemical;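 further: FRET read-out as coumarin over fluorescein emission ratio, compounds incubated one hour at room temperature, IC50 from dose-response curve fit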
Procedure: Each compound is dissolved in DMSO as a 10 mM stock and used to prepare compound source plates. Serial dilution (1:3, 11-point dose-response curves from 10 M to 0.0003 M) and compound transfer was performed using the ECHO 550 (Labcyte, Sunnyvale, Calif.) into 1536-well black-walled round bottom plates (Corning).
This is a non-radioactive assay using fluorescence resonance energy transfer (FRET) between coumarin and fluorescein to detect kinase activity which is represented as ratio of coumarin emission/fluorescein emission.
The mixture is allowed to incubate with the representative compounds for one hour at room temperature. All reactions were performed in duplicate. Unphosphorylated (“0% Control”) and phosphorylated (“100% control”) forms of Ser/Thr 18 serve as control reactions.
After incubation, diluted Development Buffer is added to the reaction and allowed to further incubate for one hour at room temperature.
Dose-response curves are generated and inhibitory concentration (IC50) values are calculated using non-linear regression curve fit in the Dotmatics' Studies Software (Bishops Stortford, UK).

[5] = system: LL29 cells (primary human fibroblasts derived from IPF patients), α-smooth muscle actin; experiment: Inhibition of fibrotic process: TGF-β1-treated primary human fibroblasts, αSMA staining; assay type: cell-based; conditions: Homo sapiens, Fibroblast; for EC50: 96 h, TGF-β1 20 ng/mL, 4 days, % cells positive for αSMA; for inhibition at 10 µM: read-out: percent inhibition at 10 μM (given for EC50 >10 μM), TGF-β1, αSMA, 10 μM;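 on all read-outs here: controls were TGF-β1-stimulated wells with DMSO vehicle as the positive reference and cells given DMSO alone as the negative reference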
[6] = system: IL-6 in human peripheral blood mononuclear cells (huPBMCs); experiment: IL-6 inhibition in LPS-stimulated human peripheral blood mononuclear cells (HTRF); assay type: cell-based; conditions: Homo sapiens, PBMC; for EC50: LPS 50 ng/mL, 22 hours, IL-6 HTRF; for inhibition at 10 µM: read-out: percent inhibition at 10 μM (given for EC50 >10 μM), LPS, IL-6, 10 μM
In short: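 Compound-treated huPBMCs (1×10e6 cells/mL, 1% FBS-RPMI) were stimulated after 2 h with LPS (50 ng/mL) for another 22 h at 37° C. An anti-IL-6 HTRF pair reported IL-6 as the 665/620 nm ratio; activity relative to DMSO, EC50 by 4-parameter Levenberg-Marquardt fitting, duplicates.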

[7] = DYRK1A kinase, head says EC50, method says IC50, ATP 30 μM
[8] = GSK3β kinase, head says EC50, method says IC50, ATP 46 μM

recombinant GSK3β kinase, sequence (P49841 whole entry): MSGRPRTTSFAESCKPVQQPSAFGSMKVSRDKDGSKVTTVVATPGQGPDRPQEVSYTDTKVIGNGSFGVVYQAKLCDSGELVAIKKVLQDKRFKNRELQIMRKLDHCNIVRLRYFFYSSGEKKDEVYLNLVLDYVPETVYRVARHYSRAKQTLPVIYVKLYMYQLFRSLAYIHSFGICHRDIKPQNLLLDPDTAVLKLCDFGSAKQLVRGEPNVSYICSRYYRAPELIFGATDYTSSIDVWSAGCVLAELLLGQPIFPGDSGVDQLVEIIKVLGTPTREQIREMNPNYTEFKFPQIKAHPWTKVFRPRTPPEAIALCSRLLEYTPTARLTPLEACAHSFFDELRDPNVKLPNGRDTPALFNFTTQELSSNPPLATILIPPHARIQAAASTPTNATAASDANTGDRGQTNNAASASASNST

| EC50 [1] | EC50 [2] | EC50 [3, 7] | EC50 [4, 8] | EC50 [6] | EC50 [3] | EC50 [4] | Compound | EC50 [5] | inhibition at 10 µM [5] | inhibition at 10 µM ([1]; read-out: percent inhibition at 10 μM (given for EC50 >10 μM), 10 μM) | inhibition at 10 µM [6] |
| --- | --- | --- | --- | --- | --- | --- | --- | --- | --- | --- | --- |
| 119 nM | 253 nM | 1 nM | 3 nM | 146 nM | – | – | O=C(Nc1cc2cc(-c3cncc(NCC4(F)CNC4)n3)ccc2cn1)C1CC1 [Compound 103, N-(6-(6-(((3-Fluoroazetidin-3-yl)methyl)amino)pyrazin-2-yl)isoquinolin-3-yl)cyclopropanecarboxamide] | 547 nM | – | – | – |
| 63 nM | 119 nM | 1 nM | 4390 nM | 1170 nM | – | – | O=C(Nc1cc2cc(-c3cncc(NCC4(F)CNC4)n3)ccc2cn1)c1ccc(F)cc1 [Compound 104, 4-fluoro-N-(6-(6-(((3-Fluoroazetidin-3-yl)methyl)amino)pyrazin-2-yl)isoquinolin-3-yl)benzamide] | 284 nM | – | – | – |
| 261 nM | 312 nM | – | – | 207 nM | 1 nM | 56 nM | O=C(Nc1cc2cc(-c3cncc(NC4CCNCC4)n3)ccc2cn1)C1CCC1 [Compound 105, N-(6-(6-(Piperidin-4-ylamino)pyrazin-2-yl)isoquinolin-3-yl) cyclobutanecarboxamide] | 226 nM | – | – | – |
| 381 nM | 8420 nM | 1 nM | 50 nM | 369 nM | – | – | O=C(Nc1cc2cc(-c3cncc(NC4CCNCC4)n3)ccc2cn1)C1CC(F)(F)C1 [Compound 106, 3,3-Difluoro-N-(6-(6-(piperidin-4-ylamino)pyrazin-2-yl)isoquinolin-3-yl) cyclobutane-1-carboxamide] | 27 nM | – | – | – |
| 266 nM | 5910 nM | 1 nM | 31 nM | 119 nM | – | – | O=C(Nc1cc2cc(-c3cncc(NC4CCNCC4)n3)ccc2cn1)C1CCCC1 [Compound 107, N-(6-(6-(Piperidin-4-ylamino)pyrazin-2-yl)isoquinolin-3-yl) cyclopentanecarboxamide] | 1270 nM | – | – | – |
| 457 nM | 1560 nM | 2 nM | 92 nM | 385 nM | – | – | O=C(Nc1cc2cc(-c3cncc(NC4CCNCC4)n3)ccc2cn1)C1CCC(F)(F)CC1 [Compound 108, 4,4-Difluoro-N-(6-(6-(piperidin-4-ylamino)pyrazin-2-yl)isoquinolin-3-yl) cyclohexane-1-carboxamide] | 3390 nM | – | – | – |
| 9 nM | 18 nM | – | – | 106 nM | 1 nM | 4 nM | O=C(Nc1cc2cc(-c3cncc(N[C@H]4CCNC[C@@H]4F)n3)ccc2cn1)C1CC1 [Compound 111, N-(6-(6-(((3S,4S)-3-Fluoropiperidin-4-yl)amino)pyrazin-2-yl)isoquinolin-3-yl)cyclopropanecarboxamide] | 1520 nM | – | – | – |
| 247 nM | 283 nM | 1 nM | 67 nM | 383 nM | – | – | CN1CCC(Nc2cncc(-c3ccc4cnc(NC(=O)C5CCC5)cc4c3)n2)CC1 [Compound 113, N-(6-(6-((1-Methylpiperidin-4-yl)amino)pyrazin-2-yl)isoquinolin-3-yl) cyclobutanecarboxamide] | > 10000 nM | 27.3% | – | – |
| 438 nM | 474 nM | 1 nM | 48 nM | 334 nM | – | – | CN1CCC(Nc2cncc(-c3ccc4cnc(NC(=O)C5CCCC5)cc4c3)n2)CC1 [Compound 114, N-(6-(6-((1-Methylpiperidin-4-yl)amino)pyrazin-2-yl)isoquinolin-3-yl) cyclopentanecarboxamide] | 175 nM | – | – | – |
| 198 nM | 485 nM | 1 nM | 58 nM | 358 nM | – | – | CC(C)N1CCC(Nc2cncc(-c3ccc4cnc(NC(=O)C5CC5)cc4c3)n2)CC1 [Compound 116, N-(6-(6-((1-Isopropylpiperidin-4-yl)amino)pyrazin-2-yl)isoquinolin-3-yl) cyclopropanecarboxamide] | 105 nM | – | – | – |
| 1470 nM | 1960 nM | 2 nM | 128 nM | 1360 nM | – | – | CC(C)N1CCC(Nc2cncc(-c3ccc4cnc(NC(=O)C5CC(F)(F)C5)cc4c3)n2)CC1 [Compound 117, 3,3-Difluoro-N-(6-(6-((1-isopropylpiperidin-4-yl)amino)pyrazin-2-yl)isoquinolin-3-yl)cyclobutane-1-carboxamide] | 170 nM | – | – | – |
| 833 nM | 1190 nM | 1 nM | 78 nM | 932 nM | – | – | CC(C)N1CCC(Nc2cncc(-c3ccc4cnc(NC(=O)C5CCCC5)cc4c3)n2)CC1 [Compound 118, N-(6-(6-((1-Isopropylpiperidin-4-yl)amino)pyrazin-2-yl)isoquinolin-3-yl) cyclopentanecarboxamide] | 148 nM | – | – | – |

The remaining lines, values behind:

| Compound | EC50 [1] | EC50 [2] | EC50 [3, 7] | EC50 [4, 8] | EC50 [6] | EC50 [3] | EC50 [4] | EC50 [5] | inhibition at 10 µM [5] | inhibition at 10 µM ([1]; read-out: percent inhibition at 10 μM (given for EC50 >10 μM), 10 μM) | inhibition at 10 µM [6] |
| --- | --- | --- | --- | --- | --- | --- | --- | --- | --- | --- | --- |
| CC(C)(C)Nc1cncc(-c2ccc3cnc(NC(=O)c4ccnc(N5CCOCC5)c4)cc3c2)n1 [Compound 102, N-(6-(6-(tert-Butylamino)pyrazin-2-yl)isoquinolin-3-yl)-2-morpholinoisonicotinamide] | 153 nM | 226 nM | 19 nM | > 10000 nM | 401 nM | – | – | 94 nM | – | – | – |
| O=C(Nc1cc2cc(-c3cncc(NC4CCNCC4)n3)ccc2cn1)c1ccc(F)cc1 [Compound 110, 4-fluoro-N-(6-(6-(piperidin-4-ylamino)pyrazin-2-yl)isoquinolin-3-yl)benzamide] | 116 nM | 326 nM | 2 nM | 4320 nM | 1180 nM | – | – | 345 nM | – | – | – |
| O=C(Nc1cc2cc(-c3cncc(N[C@H]4CCNC[C@@H]4F)n3)ccc2cn1)c1ccc(F)cc1 [Compound 112, 4-Fluoro-N-(6-(6-(((3S,4S)-3-fluoropiperidin-4-yl)amino)pyrazin-2-yl)isoquinolin-3-yl)benzamide] | 9 nM | 7 nM | 8 nM | 1830 nM | 1060 nM | – | – | 975 nM | – | – | – |
| CN1CCC(Nc2cncc(-c3ccc4cnc(NC(=O)c5ccc(F)cc5)cc4c3)n2)CC1 [Compound 115, 4-fluoro-N-(6-(6-((1-methylpiperidin-4-yl)amino)pyrazin-2-yl)isoquinolin-3-yl)benzamide] | 39 nM | 5120 nM | – | – | 3190 nM | 1 nM | 8480 nM | > 10000 nM | 12.2% | – | – |
| CC(C)N1CCC(Nc2cncc(-c3ccc4cnc(NC(=O)c5ccc(F)cc5)cc4c3)n2)CC1 [Compound 119, 4-Fluoro-N-(6-(6-((1-isopropylpiperidin-4-yl)amino)pyrazin-2-yl)isoquinolin-3-yl)benzamide] | > 10000 nM | 9020 nM | 2 nM | > 10000 nM | > 10000 nM | – | – | > 10000 nM | 7.7% | 23.7% | 6.1% |
| CN1CCN(c2cc(C(=O)Nc3cc4cc(-c5cncc(N(C)C)n5)ccc4cn3)ccn2)CC1 [Compound 120, N-(6-(6-(Dimethylamino)pyrazin-2-yl)isoquinolin-3-yl)-2-(4-methylpiperazin-1-yl)isonicotinamide] | 2770 nM | 3320 nM | 7 nM | > 10000 nM | 8890 nM | – | – | 620 nM | – | – | – |
| CCN(CC)c1cncc(-c2ccc3cnc(NC(=O)c4ccnc(N5CCN(C)CC5)c4)cc3c2)n1 [Compound 121, N-(6-(6-(Diethylamino)pyrazin-2-yl)isoquinolin-3-yl)-2-(4-methylpiperazin-1-yl)isonicotinamide] | 1040 nM | 2910 nM | 6 nM | > 10000 nM | 1910 nM | – | – | 710 nM | – | – | – |
| NC1CN(c2cncc(-c3ccc4cnc(NC(=O)c5ccc(F)cc5)cc4c3)n2)C1 [Compound 122, N-(6-(6-(3-aminoazetidin-1-yl)pyrazin-2-yl)isoquinolin-3-yl)-4-fluorobenzamide] | 6180 nM | 8900 nM | 11 nM | > 10000 nM | 3150 nM | – | – | > 10000 nM | 4.8% | – | – |
| CN1CCN(c2cc(C(=O)Nc3cc4cc(-c5cncc(N6CCCC6)n5)ccc4cn3)ccn2)CC1 [Compound 123, 2-(4-Methylpiperazin-1-yl)-N-(6-(6-(pyrrolidin-1-yl)pyrazin-2-yl)isoquinolin-3-yl)isonicotinamide] | 3570 nM | 8330 nM | 13 nM | > 10000 nM | > 10000 nM | – | – | 1040 nM | – | – | 20.9% |
